Activity calls are given as the source filed them. The rule behind the calls is not given here.
Legend:
[1] = Antioxidant activity assessed as trolox equivalent of AAPH-induced radical scavenging activity incubated for 10 mins prior to APPH challenge measured every minute for 120 mins by ORAC assay; assay type: functional
[2] = Inhibition of amyloid beta (1-42) aggregation at 20 uM after 48 hrs by thioflavin T fluorescence method relative to control
[3] = system: SH-SY5Y; assay: Neuroprotective activity in human SH-SY5Y cells assessed as decrease in tertiary butylhydroperoxide-induced radical formation incubated for 24 hrs prior to tertiary butylhydroperoxide challenge measured after 30 mins by DCFH-DA staining-based fluorescence assay; assay type: functional, cell-based
[4] = system: SH-SY5Y; assay: Cytotoxicity against human SH-SY5Y cells assessed as cell viability at 12.5 to 25 uM after 48 hrs by MTT assay; assay type: cell-based
[5] = system: SH-SY5Y; assay: Cytotoxicity against human SH-SY5Y cells assessed as cell viability at 25 uM after 48 hrs by MTT assay; assay type: cell-based
[6] = system: SH-SY5Y; assay: Neuroprotective activity in human SH-SY5Y cells assessed as decrease in tertiary butylhydroperoxide-induced radical formation at 10 uM incubated for 24 hrs prior to tertiary butylhydroperoxide challenge measured after 30 mins by DCFH-DA staining-based fluorescence assay; assay type: functional; set-up: scale not given: the % may be the effect or the level left
[7] = Inhibition of amyloid beta (1-42) aggregation at 20 uM after 24 hrs by transmission electron microscopy
[8] = system: SH-SY5Y; assay: Cytotoxicity against human SH-SY5Y cells assessed as cell viability at 60 uM after 48 hrs by MTT assay; assay type: cell-based

SMILES	inhibition [2]	Activity [1]	also measured
Oc1cc(O)cc(/C=C/c2ccncc2)c1	13.6%	1.71 equiv	–
Oc1cc(O)cc(/C=C/c2ccc(NC3CCCCC3)cc2)c1	65.5%	2.25 equiv	–
COc1cc(/C=C/c2ccc(N(C)C)cc2)cc(OC)c1	7.02%	3.46 equiv	–
CN(C)c1ccc(CCc2cc(O)cc(O)c2)cc1	48.5%	5.21 equiv	–
CN(C)c1ccc(/C=C/c2cc(O)cc(O)c2)cc1	65.2%	4.7 equiv	Activity [4]: Non-toxic
CCCN(CCC)c1ccc(/C=C/c2cc(O)cc(O)c2)cc1	69%	2.37 equiv	–
CN(C)c1cccc(/C=C/c2cc(O)cc(O)c2)c1	61.5%	3.93 equiv	–
Oc1cc(O)cc(/C=C/c2ccc(NC3CCCC3)cc2)c1	68.7%	3.37 equiv	–
CC(C)(C)c1ccc(/C=C/c2cc(O)cc(O)c2)cc1	43.6%	1.28 equiv	–
CN(C)c1ccccc1/C=C/c1cc(O)cc(O)c1	59.4%	2.05 equiv	–

Further lines, with some results ahead:

inhibition [2]	SMILES	Activity [1]	also measured
66.7%	CCCNc1ccc(/C=C/c2cc(O)cc(O)c2)cc1	4.33 equiv	–
63.7%	CNc1ccc(/C=C/c2cc(O)cc(O)c2)cc1	5.54 equiv	Activity [3]: Dose-dependent effect; Activity [4]: Non-toxic
68.6%	CCNc1ccc(/C=C/c2cc(O)cc(O)c2)cc1	5.19 equiv	Activity [3]: Dose-dependent effect; Activity [5]: Toxic
25.2%	Oc1cc(O)cc(/C=C/c2ccc(Br)cc2)c1	2.33 equiv	–
71.7%	CC(C)Nc1ccc(/C=C/c2cc(O)cc(O)c2)cc1	4.12 equiv	Activity [6]: 37%; Activity [3]: Dose-dependent effect; Activity [4]: Non-toxic; inhibition [7]: Active
69.7%	Oc1ccc(/C=C/c2cc(O)cc(O)c2)cc1 [RESVERATROL]	–	Activity [3]: Dose-dependent effect; Activity [8]: Toxic; inhibition [7]: Active
64.8%	CCN(CC)c1ccc(/C=C/c2cc(O)cc(O)c2)cc1	3.31 equiv	–
